Experimental data published in ChEMBL document CHEMBL3603763, “Phosphate-modified analogues of m(7)GTP and m(7)Gppppm(7)G-Synthesis and biochemical properties” (Bioorg Med Chem, 2015).

Assays:
[1] = Chemical stability of the compound in glycine buffer at pH 2.2 after 16 hrs; assay type: physicochemical; conditions: pH 2.2, 16 h
[2] = Chemical stability of the compound in […] buffer at pH 8.5; assay type: physicochemical
[3] = biological target: T1, Eukaryotic translation initiation factor 4E (Oryctolagus cuniculus, UniProt P29338); assay: Inhibition of eIF4E-mediated translation in flexi rabbit reticulocyte lysate using luciferase mRNA treated simultaneously with mRNA by luminescence based luciferase assay
Serum [4] = assay: Stability of the compound in 5% fetal bovine serum at 50 uM up to 240 mins by RP-HPLC analysis; assay type: ADME, cell-free, Bos taurus; conditions: cattle, 4 h
Serum [5] = assay: Stability of the compound in 10% fetal bovine serum at 50 uM up to 240 mins by RP-HPLC analysis; assay type: ADME, cell-free, Bos taurus; conditions: cattle, 4 h
m7GpppX diphosphatase = biological target: T2, m7GpppX diphosphatase (Homo sapiens, UniProt Q96C86); assay: Stability of the compound assessed as human DcpS-mediated compound hydrolysis at 40 uM after 10 to 180 mins by HPLC analysis; assay type: ADME
T2 sequence (Q96C86 whole entry): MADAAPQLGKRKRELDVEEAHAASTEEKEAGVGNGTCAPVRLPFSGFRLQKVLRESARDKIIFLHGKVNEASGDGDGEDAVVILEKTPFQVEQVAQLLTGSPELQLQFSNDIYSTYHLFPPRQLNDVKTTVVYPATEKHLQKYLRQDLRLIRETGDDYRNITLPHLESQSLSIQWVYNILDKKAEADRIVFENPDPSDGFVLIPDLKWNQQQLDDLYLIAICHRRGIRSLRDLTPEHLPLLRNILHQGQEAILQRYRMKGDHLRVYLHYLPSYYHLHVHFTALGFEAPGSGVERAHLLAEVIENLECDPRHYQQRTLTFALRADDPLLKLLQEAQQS

[6] = biological target: Eukaryotic translation initiation factor 4E (Homo sapiens) (UniProt P06730)
Description: Binding affinity to eIF4E (unknown origin) by fluorescence quenching assay

[7] = biological target: T1, Eukaryotic translation initiation factor 4E; assay: Inhibition of eIF4E-mediated translation in flexi rabbit reticulocyte lysate using luciferase mRNA preincubated for 60 mins before mRNA addition by luminescence based luciferase assay
[8] = biological target: Eukaryotic translation initiation factor 4E (Oryctolagus cuniculus) (UniProt P29338); assay: Inhibition of eIF4E-mediated translation in flexi rabbit reticulocyte lysate using luciferase mRNA by luminescence based luciferase assay relative to m7GpppG
[9] = Chemical stability of the compound in glycine buffer at pH 2.2; assay type: physicochemical
[10] = Chemical stability of the compound in aqueous buffer at pH 4 to 8.5; assay type: physicochemical
[11] = biological target: T3, DcpS (m7GpppX diphosphatase) (Homo sapiens, UniProt Q96C86); assay: Stability of the compound assessed as human DcpS-mediated compound hydrolysis at 40 uM after 180 mins by HPLC analysis; assay type: ADME; conditions: human DcpS enzyme (m7GpppX diphosphatase), read-out: Drug degradation
T3 sequence (Q96C86 whole entry): T2 sequence (Q96C86 whole entry)

[12] = Chemical stability of the compound in phosphate buffer at pH 7 assessed as compound decomposition; assay type: physicochemical; conditions: read-out: Drug degradation

T1 sequence (P29338 whole entry): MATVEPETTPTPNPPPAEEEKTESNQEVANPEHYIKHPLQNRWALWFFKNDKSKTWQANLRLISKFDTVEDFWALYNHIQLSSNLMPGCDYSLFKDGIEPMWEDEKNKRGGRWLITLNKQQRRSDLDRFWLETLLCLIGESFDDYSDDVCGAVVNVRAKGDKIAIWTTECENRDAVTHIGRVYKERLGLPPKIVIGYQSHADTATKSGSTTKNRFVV
Sequence of Eukaryotic translation initiation factor 4E (Oryctolagus cuniculus) (P29338 whole entry): as above
Sequence of Eukaryotic translation initiation factor 4E (Homo sapiens) (P06730 whole entry): as the sequence (P29338 whole entry) above, with P16T, A17T, D174E counted along it

| Structure (SMILES) | Stability (m7GpppX diphosphatase) | Ka [6] | IC50 [7] | Ratio [8] | further results |
| --- | --- | --- | --- | --- | --- |
| C[n+]1cn([C@@H]2O[C@H](COP(=O)(O)OP(=O)(O)NP(=O)(O)O)[C@@H](O)[C@H]2O)c2nc(N)nc([O-])c21 |  |  |  |  | Stability [1]: Unstable; Stability [2]: Unstable |
| C[n+]1cn([C@@H]2O[C@H](CO[P@@](=O)(S)OP(=O)([O-])CP(=O)(O)O)[C@@H](O)[C@H]2O)c2nc(N)nc(O)c21.N.N.N.N | Unstable | 41.8 µM⁻¹ | 2610 nM |  | IC50 [3]: 3680 nM; Stability (Serum [4]): Unstable; Stability (Serum [5]): Unstable |
| B[P@](=O)(OC[C@H]1O[C@@H](n2c[n+](C)c3c(O)nc(N)nc32)[C@H](O)[C@@H]1O)OP(=O)([O-])CP(=O)([O-])O[P@@](B)(=O)OC[C@H]1O[C@@H](n2c[n+](C)c3c(O)nc(N)nc32)[C@H](O)[C@@H]1O |  |  |  | 0.85 |  |
| C[n+]1cn([C@@H]2O[C@H](COP(=O)([O-])OP(=O)(O)OP(=O)(O)O)[C@@H](O)[C@H]2O)c2nc(N)[nH]c(=O)c21 | Stable |  |  |  | Stability (Serum [4]): Unstable; Stability (Serum [5]): Unstable |
| C[n+]1cn([C@@H]2O[C@H](CO[P@](=O)(S)OP(=O)([O-])OP(=O)(O)O)[C@@H](O)[C@H]2O)c2nc(N)nc(O)c21.N.N.N.N | Unstable | 371 µM⁻¹ |  |  | Stability (Serum [4]): Stable; Stability (Serum [5]): Stable |
| C[n+]1cn([C@@H]2O[C@H](COP(=O)(O)OP(=O)([O-])OP(=O)(O)OC[C@H]3O[C@@H](n4cnc5c(=O)[nH]c(N)nc54)[C@H](O)[C@@H]3O)[C@@H](O)[C@H]2O)c2nc(N)[nH]c(=O)c21 | Stable |  | 25000 nM |  |  |
| B[P@](=O)(OC[C@H]1O[C@@H](n2c[n+](C)c3c(O)nc(N)nc32)[C@H](O)[C@@H]1O)OP(=O)([O-])OP(=O)(O)O.N.N.N.N | Unstable | 136 µM⁻¹ | 3260 nM |  | IC50 [3]: 4120 nM |
| [BH3-]P(=O)(OC[C@H]1O[C@@H](n2c[n+](C)c3c(O)nc(N)nc32)[C@H](O)[C@@H]1O)OP(=O)(O)CP(=O)(O)O (stereo not given in full) |  |  |  |  | Stability [9]: Unstable; Stability [10]: Stable |
| C[n+]1cn([C@@H]2O[C@H](CO[P@](=O)(S)OP(=O)([O-])CP(=O)([O-])O[P@@](=O)(S)OC[C@H]3O[C@@H](n4c[n+](C)c5c(O)nc(N)nc54)[C@H](O)[C@@H]3O)[C@@H](O)[C@H]2O)c2nc(N)nc(O)c21 |  |  |  | 1.86 |  |
| [BH3-]P(=O)(OC[C@H]1O[C@@H](n2c[n+](C)c3c(O)nc(N)nc32)[C@H](O)[C@@H]1O)OP(=O)(O)OP(=O)(O)O (stereo not given in full) |  |  |  |  | Stability [9]: Unstable; Stability [10]: Stable |
| C[n+]1cn([C@@H]2O[C@H](COP(=O)(O)OP(=O)(O)CP(=O)(O)O)[C@@H](O)[C@H]2O)c2nc(N)nc([O-])c21 |  | 19.5 µM⁻¹ |  |  |  |
| B[P@@](=O)(OC[C@H]1O[C@@H](n2c[n+](C)c3c(O)nc(N)nc32)[C@H](O)[C@@H]1O)OP(=O)([O-])OP(=O)(O)O.N.N.N.N | Unstable | 148 µM⁻¹ | 1280 nM |  | IC50 [3]: 1190 nM; metabolised at 3 h, 40 µM [11]: 19% |
| C[n+]1cn([C@@H]2O[C@H](COP(=O)(O)OP(=O)(O)OP(=O)(O)OP(=O)(O)OC[C@H]3O[C@@H](n4c[n+](C)c5c([O-])nc(N)nc54)[C@H](O)[C@@H]3O)[C@@H](O)[C@H]2O)c2nc(N)nc([O-])c21 |  |  |  | 3.14 |  |
| C[n+]1cn([C@@H]2O[C@H](COP(=O)(O)OP(=O)(O)OP(=O)(O)OC[C@H]3O[C@@H](n4c[n+](C)c5c([O-])nc(N)nc54)[C@H](O)[C@@H]3O)[C@@H](O)[C@H]2O)c2nc(N)nc([O-])c21 |  |  |  | 2.66 |  |
| C[n+]1cn([C@@H]2O[C@H](CO[P@@](=O)(S)OP(=O)([O-])OP(=O)(O)O)[C@@H](O)[C@H]2O)c2nc(N)nc(O)c21.N.N.N.N | Unstable | 190 µM⁻¹ | 1300 nM |  | IC50 [3]: 1440 nM; Stability (Serum [4]): Stable; Stability (Serum [5]): Stable |
| CO[C@H]1[C@@H](O)[C@H](n2c[n+](C)c3c(O)nc(N)nc32)O[C@@H]1COP(=O)(O)OP(=O)([O-])OP(=O)(O)OC[C@H]1O[C@@H](n2cnc3c(=O)[nH]c(N)nc32)[C@H](O)[C@@H]1O |  |  |  | 1.5 |  |
| B[P@@](=O)(OC[C@H]1O[C@@H](n2c[n+](C)c3c(O)nc(N)nc32)[C@H](O)[C@@H]1O)OP(=O)([O-])OP(=O)([O-])O[P@](B)(=O)OC[C@H]1O[C@@H](n2c[n+](C)c3c(O)nc(N)nc32)[C@H](O)[C@@H]1O |  |  |  |  | metabolised at 3 h, 40 µM [11]: 81% |
| [BH3-]P(=O)(OC[C@H]1O[C@@H](n2c[n+](C)c3c(O)nc(N)nc32)[C@H](O)[C@@H]1O)OP(=O)(O)NP(=O)(O)O (stereo not given in full) |  |  |  |  | Stability [1]: Unstable; Stability [2]: Unstable; degraded [12]: > 50% |
| B[P@@](=O)(OC[C@H]1O[C@@H](n2c[n+](C)c3c(O)nc(N)nc32)[C@H](O)[C@@H]1O)OP(=O)([O-])CP(=O)(O)O.N.N.N.N | Unstable | 36.1 µM⁻¹ | 3260 nM |  | IC50 [3]: 2550 nM |
| C[n+]1cn([C@@H]2O[C@H](CO[P@](=O)(S)OP(=O)([O-])CP(=O)([O-])O[P@](=O)(S)OC[C@H]3O[C@@H](n4c[n+](C)c5c(O)nc(N)nc54)[C@H](O)[C@@H]3O)[C@@H](O)[C@H]2O)c2nc(N)nc(O)c21 |  |  |  | 1.56 |  |
| B[P@@](=O)(OC[C@H]1O[C@@H](n2c[n+](C)c3c(O)nc(N)nc32)[C@H](O)[C@@H]1O)OP(=O)([O-])CP(=O)([O-])O[P@](B)(=O)OC[C@H]1O[C@@H](n2c[n+](C)c3c(O)nc(N)nc32)[C@H](O)[C@@H]1O |  |  |  | 0.99 |  |
| C[n+]1cn([C@@H]2O[C@H](CO[P@](=O)(S)OP(=O)([O-])CP(=O)(O)O)[C@@H](O)[C@H]2O)c2nc(N)nc(O)c21.N.N.N.N | Unstable | 85.9 µM⁻¹ | 1240 nM |  | IC50 [3]: 1490 nM; Stability (Serum [4]): Stable; Stability (Serum [5]): Stable |
| C[n+]1cn([C@@H]2O[C@H](COP(=O)(O)OP(=O)([O-])OP(=O)(O)OC[C@H]3O[C@@H](n4cnc5c(=O)[nH]c(N)nc54)[C@H](O)[C@@H]3O)[C@@H](O)[C@H]2O)c2nc(N)nc(O)c21 |  | 9.4 µM⁻¹ |  |  |  |
| B[P@](=O)(OC[C@H]1O[C@@H](n2c[n+](C)c3c(O)nc(N)nc32)[C@H](O)[C@@H]1O)OP(=O)([O-])CP(=O)(O)O.N.N.N.N | Unstable | 18.5 µM⁻¹ | 3220 nM |  | IC50 [3]: 4470 nM |
| B[P@](=O)(OC[C@H]1O[C@@H](n2c[n+](C)c3c(O)nc(N)nc32)[C@H](O)[C@@H]1O)OP(=O)([O-])CP(=O)([O-])O[P@](B)(=O)OC[C@H]1O[C@@H](n2c[n+](C)c3c(O)nc(N)nc32)[C@H](O)[C@@H]1O |  |  |  | 1.18 |  |
| C[n+]1cn([C@@H]2O[C@H](CO[P@@](=O)(S)OP(=O)([O-])CP(=O)([O-])O[P@](=O)(S)OC[C@H]3O[C@@H](n4c[n+](C)c5c(O)nc(N)nc54)[C@H](O)[C@@H]3O)[C@@H](O)[C@H]2O)c2nc(N)nc(O)c21 |  |  |  | 1.12 |  |
